Holding throughout (assay): biochemical
Common to all, as to type: biochemical

Assay [1] addresses T1, 382 unique human kinases (Homo sapiens, UniProt O14920).
T1 construct: purchased Reaction Biology (HotSpot contract assay)
T1 sequence (O14920 1-756): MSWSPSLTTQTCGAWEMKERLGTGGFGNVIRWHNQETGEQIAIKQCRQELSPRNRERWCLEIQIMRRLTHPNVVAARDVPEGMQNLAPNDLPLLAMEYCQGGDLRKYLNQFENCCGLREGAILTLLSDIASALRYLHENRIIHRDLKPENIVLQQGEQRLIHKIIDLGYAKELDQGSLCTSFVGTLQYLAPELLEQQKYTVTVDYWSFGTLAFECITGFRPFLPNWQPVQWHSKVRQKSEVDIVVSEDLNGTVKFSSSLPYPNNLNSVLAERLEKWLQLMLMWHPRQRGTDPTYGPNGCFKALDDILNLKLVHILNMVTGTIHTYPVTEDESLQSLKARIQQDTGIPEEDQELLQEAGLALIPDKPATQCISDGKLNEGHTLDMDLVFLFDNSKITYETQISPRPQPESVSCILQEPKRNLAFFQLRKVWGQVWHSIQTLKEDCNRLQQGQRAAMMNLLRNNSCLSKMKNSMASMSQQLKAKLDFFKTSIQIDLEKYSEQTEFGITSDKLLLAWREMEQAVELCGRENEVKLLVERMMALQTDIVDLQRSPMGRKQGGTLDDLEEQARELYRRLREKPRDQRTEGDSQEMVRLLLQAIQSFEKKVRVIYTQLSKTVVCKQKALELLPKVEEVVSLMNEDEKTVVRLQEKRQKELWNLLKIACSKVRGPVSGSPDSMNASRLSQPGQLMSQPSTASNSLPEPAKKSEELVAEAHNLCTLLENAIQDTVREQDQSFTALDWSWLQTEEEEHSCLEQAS
Conditions: IKKb/IKBKB, 10 uM; for remaining activity at 10 µM: read-out: % Enzyme Activity (relative to DMSO controls).

Assay [2] addresses T2, 382 unique human kinases (Homo sapiens, UniProt P32298).
T2 construct: purchased Reaction Biology (HotSpot contract assay)
Conditions: kinase GRK4, compound 10 uM; for remaining activity at 10 µM: read-out: % Enzyme Activity (relative to DMSO controls).

In assay [3] the target is T3, 382 unique human kinases (Homo sapiens, UniProt P53355).
T3 construct: purchased Reaction Biology (HotSpot contract assay)
Conditions: kinase DAPK1, compound 10 uM; for remaining activity at 10 µM: read-out: % Enzyme Activity (relative to DMSO controls).

Assay [4] has as its target T4, 382 unique human kinases (Homo sapiens, UniProt Q99759).
T4 construct: purchased Reaction Biology (HotSpot contract assay)
T4 sequence (Q99759 1-626): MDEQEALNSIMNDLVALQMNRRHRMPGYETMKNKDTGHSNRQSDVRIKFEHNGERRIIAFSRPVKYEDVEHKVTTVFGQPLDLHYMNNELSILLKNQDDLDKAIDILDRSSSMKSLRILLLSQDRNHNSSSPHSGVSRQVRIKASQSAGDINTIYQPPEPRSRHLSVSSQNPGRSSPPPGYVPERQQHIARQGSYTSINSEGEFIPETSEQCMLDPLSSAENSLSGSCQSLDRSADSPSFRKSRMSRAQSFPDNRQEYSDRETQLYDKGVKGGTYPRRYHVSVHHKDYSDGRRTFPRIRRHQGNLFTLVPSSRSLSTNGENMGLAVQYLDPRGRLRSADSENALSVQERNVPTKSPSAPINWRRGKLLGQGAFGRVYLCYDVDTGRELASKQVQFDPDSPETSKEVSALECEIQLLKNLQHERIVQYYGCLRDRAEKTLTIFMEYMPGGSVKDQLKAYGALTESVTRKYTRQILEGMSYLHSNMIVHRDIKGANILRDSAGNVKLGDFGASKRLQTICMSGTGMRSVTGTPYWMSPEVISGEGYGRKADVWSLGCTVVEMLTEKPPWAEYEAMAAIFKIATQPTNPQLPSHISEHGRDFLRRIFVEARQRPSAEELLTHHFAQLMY
Conditions: MEKK3, compound at 10 uM, duplicate values; for remaining activity at 10 µM: read-out: % Enzyme Activity (relative to DMSO controls).

Assay [5] deals with T5, 382 unique human kinases (Homo sapiens, UniProt Q9P2K8).
T5 construct: purchased Reaction Biology (HotSpot contract assay)
T5 sequence (Q9P2K8 whole entry): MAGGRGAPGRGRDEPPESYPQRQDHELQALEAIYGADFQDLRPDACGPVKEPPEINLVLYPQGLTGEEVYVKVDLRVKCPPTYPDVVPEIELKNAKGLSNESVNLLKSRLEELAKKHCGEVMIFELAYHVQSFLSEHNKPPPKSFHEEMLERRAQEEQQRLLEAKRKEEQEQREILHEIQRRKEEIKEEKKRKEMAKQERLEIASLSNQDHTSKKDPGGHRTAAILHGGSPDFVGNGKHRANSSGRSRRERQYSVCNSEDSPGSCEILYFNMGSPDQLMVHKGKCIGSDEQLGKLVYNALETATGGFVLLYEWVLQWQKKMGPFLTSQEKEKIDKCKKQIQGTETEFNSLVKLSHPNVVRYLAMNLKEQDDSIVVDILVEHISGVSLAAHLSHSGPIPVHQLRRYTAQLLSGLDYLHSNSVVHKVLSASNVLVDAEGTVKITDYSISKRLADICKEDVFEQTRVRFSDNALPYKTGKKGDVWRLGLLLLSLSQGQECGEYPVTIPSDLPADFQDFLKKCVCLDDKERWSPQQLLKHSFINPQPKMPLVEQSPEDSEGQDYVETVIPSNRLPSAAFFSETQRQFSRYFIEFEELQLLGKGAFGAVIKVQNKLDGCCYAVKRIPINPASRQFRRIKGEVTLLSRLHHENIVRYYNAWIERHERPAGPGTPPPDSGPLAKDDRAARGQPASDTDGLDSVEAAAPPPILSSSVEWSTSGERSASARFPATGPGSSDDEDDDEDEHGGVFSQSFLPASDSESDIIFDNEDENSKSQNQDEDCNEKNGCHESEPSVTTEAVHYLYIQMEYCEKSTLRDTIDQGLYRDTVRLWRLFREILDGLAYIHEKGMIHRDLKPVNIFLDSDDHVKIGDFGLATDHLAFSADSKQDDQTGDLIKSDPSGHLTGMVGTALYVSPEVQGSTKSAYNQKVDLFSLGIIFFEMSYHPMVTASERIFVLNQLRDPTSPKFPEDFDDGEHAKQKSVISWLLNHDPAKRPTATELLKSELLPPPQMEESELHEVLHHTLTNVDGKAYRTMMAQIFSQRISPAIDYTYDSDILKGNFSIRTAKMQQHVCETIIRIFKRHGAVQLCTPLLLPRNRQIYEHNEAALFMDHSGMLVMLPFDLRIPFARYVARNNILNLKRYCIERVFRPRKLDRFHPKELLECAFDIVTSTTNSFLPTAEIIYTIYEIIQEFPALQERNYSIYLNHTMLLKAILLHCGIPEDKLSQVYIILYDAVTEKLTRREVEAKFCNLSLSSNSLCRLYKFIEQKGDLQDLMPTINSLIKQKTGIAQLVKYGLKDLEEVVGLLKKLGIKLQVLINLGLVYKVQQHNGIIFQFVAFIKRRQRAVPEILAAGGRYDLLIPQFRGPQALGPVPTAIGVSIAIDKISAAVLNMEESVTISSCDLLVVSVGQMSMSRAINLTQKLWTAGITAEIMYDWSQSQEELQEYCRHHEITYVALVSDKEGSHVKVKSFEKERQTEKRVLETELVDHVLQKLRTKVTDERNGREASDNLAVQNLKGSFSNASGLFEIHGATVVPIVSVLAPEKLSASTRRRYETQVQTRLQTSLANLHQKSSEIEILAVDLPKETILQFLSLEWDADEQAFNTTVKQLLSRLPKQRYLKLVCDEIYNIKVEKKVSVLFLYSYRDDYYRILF
Conditions: kinase EIF2AK4, compound 10 uM; for remaining activity at 10 µM: read-out: % Enzyme Activity (relative to DMSO controls).

The target of assay [6] is T6, 382 unique human kinases (Homo sapiens, UniProt P08581, D1228H).
T6 construct: purchased Reaction Biology (HotSpot contract assay)
Conditions: c-MET (D1228H), 10 uM; for remaining activity at 10 µM: read-out: % Enzyme Activity (relative to DMSO controls).

In assay [7] the target is T7, 382 unique human kinases (Homo sapiens, UniProt P17252).
T7 construct: purchased Reaction Biology (HotSpot contract assay)
Conditions: PKCa, 10 uM; for remaining activity at 10 µM: read-out: % Enzyme Activity (relative to DMSO controls).

Assay [8] has as its target T8, 382 unique human kinases (Homo sapiens, UniProt P42681).
T8 construct: purchased Reaction Biology (HotSpot contract assay)
T8 sequence (P42681 1-527): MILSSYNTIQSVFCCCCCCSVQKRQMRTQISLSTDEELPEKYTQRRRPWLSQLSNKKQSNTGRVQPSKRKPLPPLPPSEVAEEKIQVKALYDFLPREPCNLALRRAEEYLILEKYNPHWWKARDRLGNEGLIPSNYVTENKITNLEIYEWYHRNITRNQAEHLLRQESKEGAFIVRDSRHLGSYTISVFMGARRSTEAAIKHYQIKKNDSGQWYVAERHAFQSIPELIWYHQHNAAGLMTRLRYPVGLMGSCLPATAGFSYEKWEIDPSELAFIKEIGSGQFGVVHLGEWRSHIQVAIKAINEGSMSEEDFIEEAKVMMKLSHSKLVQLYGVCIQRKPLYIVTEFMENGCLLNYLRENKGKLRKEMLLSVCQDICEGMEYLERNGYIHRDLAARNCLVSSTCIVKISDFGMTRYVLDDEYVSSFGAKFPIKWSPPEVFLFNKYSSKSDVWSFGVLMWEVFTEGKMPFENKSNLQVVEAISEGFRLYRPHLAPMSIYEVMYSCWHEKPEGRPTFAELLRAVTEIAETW
Conditions: TXK, [ATP] 30 µM, compound 10 uM; for remaining activity at 10 µM: read-out: % Enzyme Activity (relative to DMSO controls).

Assay [9] deals with T9, 382 unique human kinases (Homo sapiens, UniProt P54756).
T9 construct: purchased Reaction Biology (HotSpot contract assay)
T9 sequence (P54756 25-1037): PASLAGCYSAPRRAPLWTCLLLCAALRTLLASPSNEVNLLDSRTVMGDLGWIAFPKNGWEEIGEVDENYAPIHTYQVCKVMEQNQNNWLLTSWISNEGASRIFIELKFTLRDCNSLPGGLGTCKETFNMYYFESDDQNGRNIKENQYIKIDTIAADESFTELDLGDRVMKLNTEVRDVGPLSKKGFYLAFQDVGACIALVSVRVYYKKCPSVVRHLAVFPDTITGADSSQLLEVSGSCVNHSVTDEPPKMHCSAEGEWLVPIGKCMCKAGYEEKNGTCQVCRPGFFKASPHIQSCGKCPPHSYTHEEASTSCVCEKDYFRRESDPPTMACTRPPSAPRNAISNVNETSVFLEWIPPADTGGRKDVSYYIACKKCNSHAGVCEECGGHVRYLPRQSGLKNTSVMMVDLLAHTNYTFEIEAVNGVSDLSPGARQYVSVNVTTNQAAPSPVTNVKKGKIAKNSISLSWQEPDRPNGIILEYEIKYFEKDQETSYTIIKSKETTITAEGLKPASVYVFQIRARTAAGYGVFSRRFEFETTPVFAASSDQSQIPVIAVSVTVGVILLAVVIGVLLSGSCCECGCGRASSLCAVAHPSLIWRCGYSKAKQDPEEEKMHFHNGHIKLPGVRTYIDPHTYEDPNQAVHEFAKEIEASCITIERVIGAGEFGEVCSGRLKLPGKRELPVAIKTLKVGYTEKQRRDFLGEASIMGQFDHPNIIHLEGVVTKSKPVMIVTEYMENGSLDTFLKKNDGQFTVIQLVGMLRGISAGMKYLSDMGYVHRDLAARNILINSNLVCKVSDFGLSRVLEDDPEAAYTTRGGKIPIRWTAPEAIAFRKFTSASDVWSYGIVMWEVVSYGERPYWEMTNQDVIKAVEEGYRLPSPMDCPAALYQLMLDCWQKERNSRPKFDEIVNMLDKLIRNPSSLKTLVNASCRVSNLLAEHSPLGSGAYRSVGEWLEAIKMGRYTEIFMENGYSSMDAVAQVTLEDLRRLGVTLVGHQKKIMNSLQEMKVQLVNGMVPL
Conditions: EPHA5, [ATP] 30 µM, compound 10 uM; for remaining activity at 10 µM: read-out: % Enzyme Activity (relative to DMSO controls).

Structures are written as SMILES.

T2 sequence (P32298 whole entry): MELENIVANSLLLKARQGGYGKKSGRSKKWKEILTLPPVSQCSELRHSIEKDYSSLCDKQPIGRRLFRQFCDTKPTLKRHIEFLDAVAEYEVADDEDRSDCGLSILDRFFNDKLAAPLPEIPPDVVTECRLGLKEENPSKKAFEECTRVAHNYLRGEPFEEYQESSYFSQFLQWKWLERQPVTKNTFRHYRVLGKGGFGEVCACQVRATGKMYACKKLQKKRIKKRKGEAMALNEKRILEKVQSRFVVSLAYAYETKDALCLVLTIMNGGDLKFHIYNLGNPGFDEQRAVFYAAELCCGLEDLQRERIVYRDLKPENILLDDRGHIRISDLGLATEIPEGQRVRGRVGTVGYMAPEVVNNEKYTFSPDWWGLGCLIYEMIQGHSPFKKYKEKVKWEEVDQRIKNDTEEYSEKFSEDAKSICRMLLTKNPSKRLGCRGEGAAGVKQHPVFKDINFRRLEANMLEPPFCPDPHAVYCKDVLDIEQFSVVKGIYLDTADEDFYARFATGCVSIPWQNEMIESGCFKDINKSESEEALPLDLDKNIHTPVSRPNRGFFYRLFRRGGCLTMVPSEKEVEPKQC

Consider `CC(C)c1cc(-c2n[nH]c(=O)n2-c2ccc3c(ccn3C)c2)c(O)cc1O` [Ganetespib (STA9090)], for which the remaining activity at 10 µM is 66.7% on 382 unique human kinases [1]; 90% on 382 unique human kinases [2]; 83.3% at 382 unique human kinases [3]; 106% at 382 unique human kinases [4]; 85.7% at 382 unique human kinases [5].

Take `CC(C)c1cc(-c2n[nH]c(=O)n2-c2ccc3c(ccn3C)c2)c(O)cc1O` [Ganetespib]: the remaining activity at 10 µM on 382 unique human kinases [6] is 98.6%; on 382 unique human kinases [7] it was 94.5%; on 382 unique human kinases [8], 21.4%; at 382 unique human kinases [9] it was 55.6%.

With `CCNC(=O)c1noc(-c2cc(C(C)C)c(O)cc2O)c1-c1ccc(CN2CCOCC2)cc1` [Luminespib (AUY-922)], the “% Enzyme Activity (relative to DMSO controls)” value at 382 unique human kinases [1] worked out at 102.97%; on 382 unique human kinases [2], 97.37%; at 382 unique human kinases [3], 82.81%; on 382 unique human kinases [4], 120.79%; at 382 unique human kinases [5], 112.88%. Moreover, the remaining activity at 10 µM amounted to 104% on 382 unique human kinases [1]; 97.7% on 382 unique human kinases [2]; 83.5% on 382 unique human kinases [3]; 122% on 382 unique human kinases [4]; 116% at 382 unique human kinases [5].

Regarding `CCNC(=O)c1noc(-c2cc(C(C)C)c(O)cc2O)c1-c1ccc(CN2CCOCC2)cc1` [Luminespib], the “% Enzyme Activity (relative to DMSO controls)” value at 382 unique human kinases [6] is listed as 91.15%; at 382 unique human kinases [7], 92.02%; at 382 unique human kinases [8] it was 87.82%; on 382 unique human kinases [9] it was 78.40%. Besides, the remaining activity at 10 µM at 382 unique human kinases [6] was 92.4%; on 382 unique human kinases [7], 94%; on 382 unique human kinases [8], 88.1%; at 382 unique human kinases [9], 79.4%.
